Data as given in patent US9828344B2, “Inhibitors of the notch signaling pathway and secretion for use in medicine” (Leibniz-Institut für Altersforschung Fritz-Lipmann-Institut …, priority 2012, dated 2017).
Peptide text beside a SMILES is read from it. * marks the point of attachment. Cbz = O=C(OCc1ccccc1)*; OtBu = CC(C)(C)O*

Assays:
[1] = tested on: NotchΔE-EGFP; assay: Fluorescence microscopy of reporter localization in HeLa NotchΔE-EGFP cells; format: cell-based; details: for localization of NotchΔE-EGFP/NICD-EGFP: 10 μM compound, 24 h; for toxicity in cells: inferred from reversibility after wash-out
Protocol: FIG. 10: Phenotypes of Notch inhibitors are fully reversible. HeLa NotchΔE-EGFP cells plated in LabTek coverglass were incubated for 18 h with 10 iM of indicated compounds, washed and incubated for indicated times in cell culture medium. Cells were imaged by live-microscopy. […] Scalebar, 10 im.
For a detailed analysis of subcelluar distribution of NotchΔE/NICD the resolution of the HCS images was not sufficient. Therefore, the reporter cell line was plated on coverslips and incubated with 10 μM of individual compounds from the final hit list. After 24 h the localization of NotchΔE-EGFP/NICD-EGFP was determined by fluorescence microscopy. […] (FIG. 8).
Immunofluorescence stainings were made using standard procedures^55. Imaging was performed on a Zeiss Axiovert200 or an Axio Imager, using 63× 1.4NA objectives and Zeiss Axiovision software. For live-imaging cells were plated on Lab-Tek chambered coverglass (Thermo-Fisher). Images were assembled and processed using Adobe Photoshop. For displaying weakly stained ER-tubules/sheets non-linear changes in gamma-settings were used.

[2] = tested on: NotchΔE-EGFP; assay: Reporter localization in U2OS cells stably expressing NotchΔE-EGFP; format: cell-based; details: 10 iM, 18 h
Protocol: FIG. 9: Compound effects are not cell-type specific. U2OS cells stably expressing NotchΔE-EGFP were incubated for 18 h with 10 iM compounds as indicated, fixed and imaged by fluorescence microscopy. […] Arrows, plasma membrane; arrowheads, ER. Asterisks indicate cells where the ER collapsed to large aggregates. Scalebar, 10 im.

[3] = tested on: NotchΔE-EGFP; assay: Western blot of NotchΔE-EGFP processing in HeLa NotchΔE-EGFP lysates; format: cell-based; details: 10 μM, 18 h
Protocol: FIG. 2: Selected compounds from final hit list show distinct phenotypes. Hela NotchΔE-EGFP cells were incubated with compounds (10 μM) for 18 h, fixed and analyzed by fluorescence microscopy (a) or lysed, separated by SDS-PAGE, blotted and probed with antibodies against GFP and NICD (b). Tubulin served as loading control. c) Quantitation of NotchΔE-EGFP accumulation and NICD production from 3-4 experiments as shown in (b). […] Arrows, plasma membrane; scalebar, 10 μm.
Next, lysates of HeLa NotchΔE-EGFP cells treated with compounds were analyzed for processing of NotchΔE-EGFP by Western blot using antibodies specific for EGFP and NICD (FIG. 2b, c). The GFP antibody detected both the uncleaved reporter NotchΔE-EGFP and the γ-secretase product NICD-EGFP, whereas the NICD-specific antibody specifically detected cleaved NICD-EGFP. […] The observed effects were not cell type specific, as they were also apparent in U2OS cells stably expressing NotchΔE-EGFP (FIG. 9).

[4] = tested on: endogenous Notch signaling; assay: Luciferase Notch reporter assay in C2C12 cells transfected with Delta; format: cell-based; details: 16 h
Protocol: (§1) Cells were incubated with DAPT or 10 μM of the indicated compounds (50 μM in case of FLI-15 and -20) and after 16 h a luciferase assay was performed. […] Changes in relative gene expression levels (fold change) relative to the expression levels in DMSO controls are represented as the mean+/−SD, asterisks indicate p<0.01. Each measurement was taken from two independent samples. Each reaction was measured in triplicate. Changes in the relative expression of ngn1 were standardized to the expression of the housekeeping gene ef1a at 20 hpf. c) ISH with riboprobes specific for ngn1 was performed on dechorionated stage 4 hpf zebrafish embryos. Anterior is to the left, dorsal to the top. Magnifications of the somite region (small box) are shown. Arrows indicate larger ngn1 clusters or stronger ngn1 staining. s, sensory neurons; i, intermediate neurons; m, motor neurons.
(§2) We wanted to test whether the results obtained with the NotchΔE-EGFP construct are relevant for endogenous Notch signaling. Therefore we made use of C2C12 cells, a well established model for muscle development that expresses endogenous Notch^21,22. After stimulating endogenous Notch signaling by transfecting the Notch ligand Delta, Notch activity was measured by a luciferase assay using a Notch reporter^15 in the presence or absence of compounds (FIG. 4a). […] Next, we tested whether selected compounds would affect Notch signaling in vivo. […] Compounds were added to dechorionated stage 4 hpf zebrafish embryos and the effects were analyzed after 24 h by morphological inspection of somite formation. Phenotypes were ranked to four categories, normal somites, mild somite defects, strong somite defects and developmental delay. […] As an additional parameter we decided to analyze Notch-dependent genes involved in neurogenesis. Primary neurogenesis in zebrafish involves the selection of neuroblasts (repressed by Notch) from proneural clusters (Notch expressing cells), a process regulated in a negative manner by Notch-dependent lateral inhibition^25. Accordingly, neuroblast cells that express the neuronal specification factor neurogenin (ngn1^26) became more abundant when Notch signaling was impaired, for instance upon DAPT treatment^23,27. qPCR analyses on mRNA extracted from equivalent sets of embryos was performed for ngn1 expression (FIG. 4b). […] To confirm the data obtained by qPCR, whole-mount in-situ hybridizations (ISH) using an ngn1 specific riboprobe were performed (FIG. 4c, FIG. 11c). […] Taken together, FLI-06, -14, -15, -19 and -20 inhibited endogenous Notch signaling in vitro and in vivo, corroborating the NotchΔE-EGFP reporter data.
Endogenous Notch signaling in C2C12 was determined by a luciferase assay using a 12xCSL-luciferase reporter and transfected Delta as described before^15.

[5] = tested on: zebrafish embryos; assay: Zebrafish embryo Notch phenotype (somites, ngn1 qPCR and ISH); format: in vivo, zebrafish Danio rerio; details: 50 μM; for ngn1 positive cell clusters in the developing brain (ISH): compared to DMSO controls; for ngn1 positive cell clusters along the spinal cord (ISH): compared to DMSO-treated control embryos; for ngn1 mRNA levels (qPCR): relative to DMSO controls
Protocol: as §1
FIG. 11: Selected compounds affect somite formation and neurogenesis in vivo in zebrafish embryos. a) Lateral view of typical representative phenotypes induced by DAPT treatment, which were used as a reference to score the effect of compounds. […] Images were taken at 24 hpf. b) Pie chart showing the cumulative relative frequency of the phenotypes in a) at 24 hpf in embryos treated with 20, 50 and 100 iM of the indicated compounds. c) ISH with riboprobes specific for ngn1 was performed on dechorionated stage 4 hpf zebrafish embryos. Anterior is to the left, dorsal to the top. Magnifications of the developing head (box) are shown. Arrows indicate larger ngn1 clusters or stronger ngn1 staining. t, telencephalon; p, protectum; h, hindbrain; d, diencephalon; tg, tegmentum; vrc, ventral rostral cluster.
as §2
Embryos were obtained from natural spawning of wild-type TüAB strain adults, raised and staged according to supp. Ref 14. DAPT and compounds were applied at 50 iM in E3 embryo medium to zebrafish embryos with chorions torn but not completely removed from sphere stage until the stage of analysis, according to ref 23. Control embryos were mock treated with the same concentration of DMSO dissolved in E3 embryo medium. […]

[6] = tested on: NotchΔE-EGFP; assay: Fluorescence microscopy of reporter localization in HeLa NotchΔE-EGFP cells; format: cell-based; details: 50 μM compound

Row | SMILES | localization of NotchΔE-EGFP/NICD-EGFP [1] | toxicity in cells [1] | localization of NotchΔE-EGFP in U2OS cells [2] | NICD-EGFP production [3] | NotchΔE-EGFP level (GFP antibody) [3] | inhibition of endogenous Notch signaling ([4]; 10 μM) | ngn1 positive cell clusters in the developing brain (ISH) [5] | ngn1 positive cell clusters along the spinal cord (ISH) [5] | ngn1 mRNA levels (qPCR) [5] | localization of NotchΔE-EGFP/NICD-EGFP [6] | inhibition of endogenous Notch signaling ([4]; 50 μM)
1 | CC1=C(C(=O)OC2CCCCC2)C(c2ccc([N+](=O)[O-])cc2)C2=C(CC(C)(C)CC2=O)N1 (stereo not shown) [FLI-06, Cyclohexyl 4-(4′-nitrophenyl)-2,7,7-trimethyl-5-oxo-1,4,5,6,7,8-hexahydroquinoline-3-carboxylate] | reduced nuclear fluorescence and localization in intracellular membranes | not acutely toxic in cells | ER accumulation of the reporter and in some cells aggregation | decreased NICD-EGFP production | accumulation of NotchΔE-EGFP | strongly | differentially expanded | expanded and denser clusters of ngn1 positive cells | significantly increased | – | –
2 | Cn1c2ccccc2c2c(C(=O)N3CCN(Cc4ccc5c(c4)OCO5)CC3)cn(C3CCCC3)c(=O)c21 [FLI-14] | accumulation of the reporter at the PM and in perinuclear Golgi-like structures | not acutely toxic in cells | PM accumulation similar to DAPT | decreased NICD-EGFP production | accumulation of NotchΔE-EGFP | strongly | differentially expanded | expanded and denser clusters of ngn1 positive cells | significantly increased | strong reduction of nuclear NICD-EGFP fluorescence and concomitant accumulation at the PM | –
3 | Cc1ccc(NC(=O)C(NS(=O)(=O)c2cccc3nsnc23)C(C)C)nc1 (stereo not shown) [FLI-15] | accumulation of the reporter at the PM and in perinuclear Golgi-like structures | not acutely toxic in cells | PM accumulation similar to DAPT | decreased NICD-EGFP production | accumulation of NotchΔE-EGFP | hardly affected Notch signaling | differentially expanded | expanded and denser clusters of ngn1 positive cells | significantly increased | strong reduction of nuclear NICD-EGFP fluorescence and concomitant accumulation at the PM | remarkably
4 | CC(C)CC(NC(=O)C(Cc1ccccc1)NC(=O)C1CCCN1C(=O)OCc1ccccc1)C(=O)OC(C)(C)C (stereo not drawn) [FLI-19] (Cbz-Pro-Phe-Leu-OtBu; configuration not given here) | accumulation of the reporter at the PM and in perinuclear Golgi-like structures | not acutely toxic in cells | PM accumulation similar to DAPT | – | accumulation of NotchΔE-EGFP | considerably | – | increased | did not induce significant changes | strong reduction of nuclear NICD-EGFP fluorescence and concomitant accumulation at the PM | –
5 | CC(=O)Nc1ccc2nc(NC(=O)CC34CC5CC(CC(C5)C3)C4)sc2c1 [FLI-20] | accumulation of the reporter at the PM and in perinuclear Golgi-like structures | not acutely toxic in cells | PM accumulation similar to DAPT | decreased NICD-EGFP production | accumulation of NotchΔE-EGFP | hardly affected Notch signaling | differentially expanded | expanded and denser clusters of ngn1 positive cells | significantly increased | strong reduction of nuclear NICD-EGFP fluorescence and concomitant accumulation at the PM | remarkably
